{"source": "paper PMC5054432", "about": "(Scientific Reports, 2016)", "key": {"[1]": {"target": "T1, wt GluN1/GluN2B receptors (UniProt P35439+Q01097)", "T1 sequence (Q01097 27-1482, other chains not shown)": "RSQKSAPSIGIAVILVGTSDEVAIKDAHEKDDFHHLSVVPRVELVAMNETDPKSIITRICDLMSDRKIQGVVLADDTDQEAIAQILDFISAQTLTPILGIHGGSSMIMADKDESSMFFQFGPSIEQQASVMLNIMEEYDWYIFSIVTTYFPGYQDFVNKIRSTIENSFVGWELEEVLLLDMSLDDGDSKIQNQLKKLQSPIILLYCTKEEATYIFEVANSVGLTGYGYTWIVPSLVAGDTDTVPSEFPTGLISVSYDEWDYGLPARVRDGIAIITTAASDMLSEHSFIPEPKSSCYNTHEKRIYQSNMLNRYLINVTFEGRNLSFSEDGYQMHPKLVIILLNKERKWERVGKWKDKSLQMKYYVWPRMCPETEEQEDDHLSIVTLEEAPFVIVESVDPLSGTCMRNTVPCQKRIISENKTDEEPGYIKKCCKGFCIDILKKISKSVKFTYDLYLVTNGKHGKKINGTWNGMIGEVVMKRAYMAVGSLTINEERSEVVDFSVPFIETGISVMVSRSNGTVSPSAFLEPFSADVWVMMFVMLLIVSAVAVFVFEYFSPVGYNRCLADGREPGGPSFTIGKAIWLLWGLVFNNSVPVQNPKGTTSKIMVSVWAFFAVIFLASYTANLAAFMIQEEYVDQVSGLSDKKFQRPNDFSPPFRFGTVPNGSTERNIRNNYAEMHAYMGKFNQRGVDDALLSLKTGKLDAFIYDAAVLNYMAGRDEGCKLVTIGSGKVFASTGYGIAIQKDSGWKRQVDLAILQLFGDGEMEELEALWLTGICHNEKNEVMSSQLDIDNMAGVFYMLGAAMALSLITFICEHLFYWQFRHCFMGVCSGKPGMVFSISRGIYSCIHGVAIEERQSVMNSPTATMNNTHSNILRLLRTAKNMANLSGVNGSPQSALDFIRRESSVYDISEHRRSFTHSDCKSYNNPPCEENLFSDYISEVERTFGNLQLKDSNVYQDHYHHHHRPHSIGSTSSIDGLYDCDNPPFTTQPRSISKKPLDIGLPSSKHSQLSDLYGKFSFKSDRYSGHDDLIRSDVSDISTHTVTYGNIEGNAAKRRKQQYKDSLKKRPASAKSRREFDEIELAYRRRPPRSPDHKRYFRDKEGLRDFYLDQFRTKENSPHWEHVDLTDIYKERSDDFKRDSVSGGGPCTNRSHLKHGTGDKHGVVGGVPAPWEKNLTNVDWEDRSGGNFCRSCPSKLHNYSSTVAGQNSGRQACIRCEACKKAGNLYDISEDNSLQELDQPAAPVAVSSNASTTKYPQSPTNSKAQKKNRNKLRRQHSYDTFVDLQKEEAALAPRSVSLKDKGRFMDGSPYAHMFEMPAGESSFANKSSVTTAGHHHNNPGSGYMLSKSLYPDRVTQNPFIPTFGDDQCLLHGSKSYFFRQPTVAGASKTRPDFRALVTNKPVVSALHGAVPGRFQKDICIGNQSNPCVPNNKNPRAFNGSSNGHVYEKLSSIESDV", "assay": "Ifenprodil and Zn2+ inhibition dose-response, TEVC in Xenopus laevis oocytes", "format": "cell-based, rat GluN1-1a, mouse GluN2B", "description": "(§1) Oocytes were prepared and injected as described previously. Recombinant NMDARs were expressed in Xenopus laevis oocytes after nuclear injection of 36 nl of a mixture cDNAs encoding various GluN1 and GluN2 subunits (ratio 1:1, 10 ng/μl for GluN2A and 30 ng/μl for GluN2B). For Uaa incorporation, oocytes were co-injected with a 36 nl mixture of cDNAs containing GluN1, GluN2, Yam, and aaRS as follows, unless otherwise indicated in the text: GluN1-wt (60 ng/μl), GluN2A-F115AzF (60 ng/μl), Yam (5 ng/μl), AzF-RS (2.5 ng/μl); or, GluN1-wt (80 ng/μl), GluN2B-F114AzF (80 ng/μl), Yam (10 ng/μl), AzF-RS (5 ng/μl). After injection, oocytes were incubated at 19 °C in a Barth solution (88 mM NaCl, 1 mM KCl, 0.33 mM Ca(NO3)2, 0.41 mM CaCl2, 0.82 mM MgSO4, 2.4 mM NaHCO3, 10 mM HEPES, pH adjusted to 7.6 with NaOH) supplemented with gentamicin sulfate ([…]) and D-APV (50 μM). AzF was dissolved with sonication in Barth solution (stock solution at 10 mM), and diluted (1 mM) for oocytes incubation.\n(§2) For all experiments, the standard external solutions contained: 100 mM NaCl, […] BaCl2, and 5 mM HEPES, pH adjusted to 7.3 with KOH. […] Currents were recorded and measured at a holding potential of −60 mV at room temperature.\n(§3) The measurements at 30 μM were corrected by multiply with a correcting value to remove the pore blocking effect at −60 mV[49]. Zinc was prepared at 100 mM ZnCl2 stock (in 1% HCl). In all zero-Zn^2+ control solutions, diethylenetriamine-pentaacetic acid (DTPA, 10 μM) was added to chelate trace Zn^2+ and other heavy metals. Spermine potentiation was analyzed as described earlier. Solutions of 200 μM spermine (Sigma-Aldrich) were made by directly diluting the powder into the standard agonist solution. Spermine sensitivity was assessed at pH 6.5 in order to maximize the spermine-induced potentiation. Experiments with MK-801 were performed as described previously. MK-801 solutions (10–50 nM) were prepared by dilution of stock solution (50 μM) into agonist containing solution[4]. MK-801 time constants of inhibition (τon) were obtained by fitting currents with a single-exponential component to a time window corresponding to 10–90% of maximum inhibition. Each τon was then normalized to the mean τon of wt receptors measured the same day.\n(§4) For all functional recordings in Xenopus oocytes, online UV light treatment with PE-2 light source (CoolLED) using a 365 nm filter channeled through optical fiber was directly applied to the dark hemisphere of the oocytes in the recording chamber. […] For measurements in presence of agonists and allosteric modulators, the UV application duration was ~3 min. In the absence of agonist, the UV application duration was ~5 min."}, "[2]": {"target": "T2, GluN1/GluN2B-F114AzF receptors (Rattus norvegicus (GluN1-1a); Mus musculus (GluN2B), UniProt P35439+Q01097)", "T2 sequence (Q01097 27-1482, other chains not shown)": "as above", "assay": "UV-induced current potentiation in the presence of allosteric modulators, TEVC in oocytes", "format": "cell-based, rat GluN1-1a, mouse GluN2B", "set-up": "expressed in transfected cells; host or cells: Xenopus laevis oocytes co-injected with GluN1, GluN2B amber mutant, Yam suppressor tRNA and AzF-RS, incubated with 1 mM AzF", "source_text": "To evaluate whether AzF photo-activation in GluN2B produces functional changes, we applied a time-resolved assay[10] by combining online application of UV light and simultaneously recording of agonist-induced currents using TEVC. Current after UV illumination (Iuv) were compared to currents before UV illumination (Io) and yielded the relative current changes (Iuv/Io).\nTo understand how the NTD dimer interfacial contact influences allosteric modulation, we have quantified UV-induced potentiation in the presence of different modulators, including a GluN2B specific positive allosteric modulator spermine.\nas §2, §3, §4"}, "[3]": {"target": "T2, GluN1/GluN2B-F114AzF receptors", "assay": "Ifenprodil and Zn2+ inhibition dose-response, TEVC in Xenopus laevis oocytes", "format": "cell-based", "conditions": "for IC50 / Zn2+ Hill coefficient nH: F114AzF mutant", "description": "as §1, §2, §3, §4"}, "[4]": {"target": "T1, wt GluN1/GluN2B receptors", "assay": "MK-801 inhibition kinetics (index of channel open probability), TEVC in oocytes", "format": "cell-based, rat GluN1-1a, mouse GluN2B", "conditions": "50 nM MK-801, normalized to mean τon of wt", "description": "(§5) To analyze the gating property change, we assessed channel maximal open probability (Po) using MK-801, a specific open-pore blocker of NMDARs[25]. Because the rate at which MK-801 inhibits the macroscopic NMDAR responses is proportional to the level of channel activity (i.e. Po), this MK-801 assay is classically used to index NMDAR channel activity.\nas §2\nas §3, with “MK-801 solutions (10–50 nM) were prepared by dilution of stock solution (50 μM) into agonist containing solution[4]. MK-801 time constants of inhibition (τon) were obtained by fitting currents with a single-exponential component to a time window corresponding to 10–90% of maximum inhibition.” left out, “day. […]” for “day.”"}, "[5]": {"target": "T2, GluN1/GluN2B-F114AzF receptors", "assay": "MK-801 inhibition kinetics (index of channel open probability), TEVC in oocytes", "format": "cell-based, rat GluN1-1a, mouse GluN2B", "set-up": "expressed in transfected cells; host or cells: Xenopus laevis oocytes co-injected with GluN1, GluN2B amber mutant, Yam suppressor tRNA and AzF-RS, incubated with 1 mM AzF", "conditions": "50 nM MK-801, normalized to mean τon of wt", "description": "as §5, §2\nas §3, with “MK-801 solutions (10–50 nM) were prepared by dilution of stock solution (50 μM) into agonist containing solution[4]. MK-801 time constants of inhibition (τon) were obtained by fitting currents with a single-exponential component to a time window corresponding to 10–90% of maximum inhibition.” left out, “day. […]” for “day.”"}, "wild-type GluN1 (rat)": {"target": "wild-type GluN1 (rat) (UniProt P35439)"}, "[6]": {"target": "T2, GluN1/GluN2B-F114AzF receptors", "conditions": "200 μM spermine, pH 6.5, without UV", "quoted_text": "For all experiments, the standard external solutions contained: 100 mM NaCl, 300 mM BaCl2, and 5 mM HEPES, pH adjusted to 7.3 with KOH. […] Currents were recorded and measured at a holding potential of −60 mV at room temperature.\nThe measurements at 30 μM were corrected by multiply with a correcting value to remove the pore blocking effect at −60 mV[49]. Zinc was prepared at 100 mM ZnCl2 stock (in 1% HCl). In all zero-Zn^2+ control solutions, diethylenetriamine-pentaacetic acid (DTPA, 10 μM) was added to chelate trace Zn^2+ and other heavy metals[25]. […] Experiments with MK-801 were performed as described previously. MK-801 solutions (10–50 nM) were prepared by dilution of stock solution (50 μM) into agonist containing solution[4]. MK-801 time constants of inhibition (τon) were obtained by fitting currents with a single-exponential component to a time window corresponding to 10–90% of maximum inhibition. Each τon was then normalized to the mean τon of wt receptors measured the same day."}}, "note": "Values joined by “and” are separate entries in the source; they are usually repeats but may differ in a detail not shown here. Equal entries are not always repeated."}
{"compound": "[Cl-].[Cl-].[Zn+2]", "note": "[Zn^2+, ZnCl2]", "values": [{"measurement": "IC50", "setting": "[1]; after UV", "value": "0.72 ± 0.12", "unit": "µM"}, {"measurement": "Zn2+ Hill coefficient nH", "setting": "[1]; after UV", "value": 0.78}, {"measurement": "IC50", "setting": "[1]; before UV", "value": "0.58 ± 0.13", "unit": "µM"}, {"measurement": "Zn2+ Hill coefficient nH", "setting": "[1]; before UV", "value": 0.59}, {"measurement": "Relative current (I+uv/I0) after wash-off of modulator", "setting": "[2]; 10 μM Zn2+ with co-agonists, +UV (~3 min, 365 nm)", "value": "1.40 ± 0.43"}, {"measurement": "Relative current (I/I0) after wash-off of modulator", "setting": "[2]; 10 μM Zn2+ with co-agonists, -UV", "value": "0.92 ± 0.29"}, {"measurement": "Maximal inhibition (%)", "setting": "[3]; 0.1uM inhibitor, +UV", "value": "16 ± 7", "unit": "%"}, {"measurement": "Maximal inhibition (%)", "setting": "[3]; 0.1uM inhibitor, -UV", "value": "25 ± 8", "unit": "%"}, {"measurement": "Maximal inhibition (%)", "setting": "[3]; 1uM inhibitor, +UV", "value": "35 ± 4", "unit": "%"}, {"measurement": "Maximal inhibition (%)", "setting": "[3]; 1uM inhibitor, -UV", "value": "49 ± 11", "unit": "%"}, {"measurement": "Maximal inhibition (%)", "setting": "[3]; 10uM inhibitor, +UV", "value": "83 ± 1", "unit": "%"}, {"measurement": "Maximal inhibition (%)", "setting": "[3]; 10uM inhibitor, -UV", "value": "87 ± 4", "unit": "%"}, {"measurement": "Change in Zn2+ maximal inhibition", "setting": "[3]; F114AzF mutant before and after UV versus wt", "value": "no change"}, {"measurement": "IC50", "setting": "[3]; after UV", "value": "1.72 ± 0.6", "unit": "µM"}, {"measurement": "Zn2+ Hill coefficient nH", "setting": "[3]; after UV", "value": 0.77}, {"measurement": "IC50", "setting": "[3]; before UV", "value": "0.78 ± 0.25", "unit": "µM"}, {"measurement": "Zn2+ Hill coefficient nH", "setting": "[3]; before UV", "value": 0.62}]}
{"compound": "C[C@]12N[C@H](Cc3ccccc31)c1ccccc12", "note": "[MK-801, (+)-MK-801]", "values": [{"measurement": "Relative MK-801 τon", "setting": "[4]; wild-type with UV", "value": "0.90 ± 0.06"}, {"measurement": "Relative MK-801 τon", "setting": "[4]; wild-type without UV", "value": 1.00}, {"measurement": "Relative MK-801 τon", "setting": "[5]; F114AzF mutant with UV", "value": "0.80 ± 0.07"}, {"measurement": "Relative MK-801 τon", "setting": "[5]; F114AzF mutant without UV", "value": "1.81 ± 0.47"}]}
{"compound": "CC(C(O)c1ccc(O)cc1)N1CCC(Cc2ccccc2)CC1", "note": "(centres unmarked) [ifenprodil]", "values": [{"measurement": "Ifenprodil Hill coefficient nH", "setting": "[1]", "value": 1.14}, {"measurement": "Effect on UV potentiation", "setting": "[2]; in the presence of ifenprodil", "value": "completely abolished"}, {"measurement": "Ifenprodil maximal inhibition", "setting": "[3]", "value": "77% and 67%"}, {"measurement": "Maximal inhibition (%)", "setting": "[3]; 0.1 µM", "value": "16 ± 3% and 9 ± 4 %"}, {"measurement": "Maximal inhibition (%)", "setting": "[3]; 1 µM", "value": "54 ± 4% and 35 ± 4 %"}, {"measurement": "Maximal inhibition (%)", "setting": "[3]; 10 µM", "value": "77 ± 3% and 55 ± 3 %"}]}
{"compound": "GluN2B-F114AzF (from UniProt Q01097 27-1482) (receptor)", "values": [{"measurement": "relative current Iuv/Io after UV illumination of maximally activated receptors (TEVC in oocytes, UV-induced potentiation)", "setting": "wild-type GluN1 (rat)", "value": 1.97}]}
{"compound": "NCCCNCCCCNCCCN", "note": "[spermine]", "values": [{"measurement": "Spermine potentiation of receptor activation", "setting": "[6]", "value": 4.6, "unit": "fold"}, {"measurement": "Relative current (I+uv/I0)", "setting": "[2]; 200 μM spermine, pH 6.5, +UV (~3 min, 365 nm)", "value": "2.80 ± 0.64"}, {"measurement": "Relative current (I/I0)", "setting": "[2]; 200 μM spermine, pH 6.5, -UV", "value": "0.85 ± 0.10"}, {"measurement": "τon of UV induced additional potentiation", "setting": "[2]; in the presence of 200 μM spermine, pH 6.5", "value": 50.8, "unit": "s"}]}
